Data from patent publication US5602101A, “Antithrombotic agents” (priority 1994, dated 1997).

Legend:
[1] = Index of bioavailability (plasma TT AUC, p.o. vs i.v.); conditions: rats, adjusted for dose
Bovine trypsin = target: T1, Bovine trypsin (Bos taurus, UniProt P00760); experiment: Serine protease inhibition, trypsin (chromogenic substrate), Kass; assay type: biochemical; conditions: substrate N-Benzoyl-Phe-Val-Arg-p-nitroanilide
T1 construct: Bovine trypsin is purchased from Worthington Biochemicals, Freehold, N.J; purchased Worthington Biochemicals, Freehold, N.J
T1 sequence (P00760 24-246): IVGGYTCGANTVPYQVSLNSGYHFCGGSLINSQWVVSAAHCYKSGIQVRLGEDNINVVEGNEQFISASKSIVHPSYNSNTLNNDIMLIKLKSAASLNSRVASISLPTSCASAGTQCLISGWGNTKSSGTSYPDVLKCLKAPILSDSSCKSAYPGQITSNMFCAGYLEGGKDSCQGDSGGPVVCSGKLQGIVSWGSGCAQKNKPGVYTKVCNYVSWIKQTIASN
Protocol: (§1) The assay is carried out by mixing 50 μl buffer (0.03M Tris, 0.15M NaCl, pH 7.4), 25 μl of human thrombin solution (purified human thrombin Enzyme Research Laboratories, South Bend, Ind.) at 8 NIH units/ml and 25 μl of test compound in a solvent (50% aqueous methanol (v:v)). Then 150 μl of an aqueous solution of the chromogenic substrate (at 0.25 mg/ml) are added and the rates of hydrolysis of the substrate are measured by monitoring the reactions at 405 nm for the release of p-nitroaniline. Standard curves are constructed by plotting free thrombin concentration against hydrolysis rate. The hydrolysis rates observed with test compounds are then converted to "free thrombin" values in the respective assays by use of the standard curves. The bound thrombin (bound to test compound) is calculated by subtracting the amount of free thrombin observed in each assay from the known initial amount of thrombin used in the assay. The amount of free inhibitor in each assay is calculated by subtracting the number of moles of bound thrombin from the number of moles of added inhibitor (test compound).
(§2) Kass is calculated for a range of concentrations of test compounds and the mean value is reported in units of liter per mole.
(§3) By substantially following the procedures described above for human thrombin, and using other human blood coagulation system serine proteases, and using fibrinolytic system serine proteases, with the appropriate chromogenic substrate, identified below, selectivity of the compounds of the present invention with respect to the coagulation factor serine proteases and to the fibrinolytic serine proteases are evaluated as well as their substantial lack of interference with human plasma clot fibrinolysis.
(§4) Human factors X, Xa, IXa, XIa, and xIIa are purchased from Enzyme Research Laboratories, South Bend, Ind.; human urokinase from Leo Pharmaceuticals, Denmark; and recombinant activated Protein C (aPC) is prepared at Eli Lilly and Co. substantially according to U.S. Pat. No. 4,981,952 incorporated by reference herein in its entirety. Chromogenic substrates: N-Benzoyl-Ile-Glu-Gly-Arg-p-nitroanilide (for factor Xa); N-Cbz-D-Arg-Gly-Arg-p-nitroanilide (for factor IXa assay as the factor Xa substrate) pyroglutamyl-Pro-Arg-p-nitroanilide (for factor XIa and for aPC); H-D-Pro-Phe-Arg-p-nitroanilide (for factor XIIa); and pyroglutamyl-Gly-Arg-p-nitroanilide (for urokinase); are purchased from KabiVitrum, Stockholm, Sweden, or from Midwest Biotech, Fishers, Indiana. Bovine trypsin is purchased from Worthington Biochemicals, Freehold, N.J., and human plasma kallikrein from Kabi Vitrum, Stockholm, Sweden. N-Benzoyl-Phe-Val-Arg-p-nitroanilide, the substrate for human thrombin and for trypsin, is synthesized according to procedures described above for the compounds of the present invention, known methods of peptide coupling from commercially available reactants, or was purchased from Midwest Biotech, Fishers, Ind. Human plasmin is purchased from Boehringer Mannheim, Indianapolis, Ind.; nt-PA is purchased as single chain activity reference from American Diagnostics, Greenwich, Conn.; modified-t-PA6 (mt-PA6) is prepared at Eli Lilly and Company by procedure known in the art (See, Burck, et al., J. Biol. Chem., 265, […] (1990). Plasmin chromogenic substrate H-D-Val-Leu-Lys-p-nitroanilide and tissue plasminegen activator (t-PA) substrate H-D-Ile-Pro-Arg-p-nitroanilide are purchased from Kabi Vitrum, Stockholm, Sweden.

Human Plasma [2] = experiment: Anticoagulation in human plasma, prothrombin time (PT); assay type: biochemical; conditions: concentration required to double the PT
Protocol: (§5) Dog plasma and rat plasma are obtained from conscious mixed-breed hounds (either sex, Hazelton-LRE, Kalamazoo, Mich., U.S.A.) or from anesthetized male Sprague-Dawley rats (Harlan Sprague-Dawley, Inc., Indianapolis, Ind., U.S.A.) by venipuncture into 3.8 percent citrate. Fibrinogen is prepared from in-date ACD human blood as the fraction I-2 according to previous procedures and specifications. Smith, Biochem. Chem. […] Human fibrinogen is also purchased as 98 percent pure/plasmin free from American Diagnostics, Greenwich, Conn. Coagulation reagents ACTIN, Thromboplastin, and Human plasma are from Baxter Healthcare Corp., Dade Division, Miami, Fla. Bovine thrombin from Parke-Davis (Ann Arbor, Mich.) is used for coagulation assays in plasma. Coagulation assay procedures are as previously described. Smith, et al., Thrombosis Research, 5, 163-174 (1988). A CoAScreener coagulation instrument (American LABor, Inc.) is used for all coagulation assay measurements. The prothrombin time (PT) is measured by adding 0.05 ml saline and 0.05 ml Thromboplastin-C reagent to 0.05 ml test plasma. The activated partial thromboplastin time (APTT) is measured by incubation of 0.05 ml test plasma with 0.05 ml Actin reagent for 120 seconds followed by 0.05 ml CaCl2 (0.02M). […] The compounds of formula I are added to human or animal plasma over a wide range of concentrations to determine prolongation effects on the APTT, PT, and TT assays. Linear extrapolations are performed to estimate the concentrations required to double the clotting time for each assay.

[3] = target: T2, tissue plasminogen activator (t-PA) (Homo sapiens, UniProt P00750); experiment: Serine protease inhibition, t-PA (chromogenic substrate), Kass; assay type: biochemical; conditions: substrate H-D-Ile-Pro-Arg-p-nitroanilide
T2 construct: purchased American Diagnostics, Greenwich, Conn
Protocol: as §1, §2, §3, §4

factor Xa = target: T3, factor Xa (Homo sapiens, UniProt P00742); experiment: Serine protease inhibition, factor Xa (chromogenic substrate), Kass; assay type: biochemical; conditions: substrate N-Benzoyl-Ile-Glu-Gly-Arg-p-nitroanilide
T3 construct: Human factors X, Xa, IXa, XIa, and xIIa are purchased from Enzyme Research Laboratories; purchased Enzyme Research Laboratories, South Bend, Ind
Protocol: as §1, §2, §3, §4

Human plasmin = target: T4, Human plasmin (Homo sapiens, UniProt P00747); experiment: Serine protease inhibition, plasmin (chromogenic substrate), Kass; assay type: biochemical; conditions: substrate H-D-Val-Leu-Lys-p-nitroanilide
T4 construct: Human plasmin is purchased from Boehringer Mannheim, Indianapolis, Ind; purchased Boehringer Mannheim, Indianapolis, Ind
Protocol: as §1, §2, §3, §4

Human Plasma [4] = experiment: Anticoagulation in human plasma, thrombin time (TT); assay type: biochemical; conditions: concentration required to double the thrombin time
Protocol: as §5

Human Plasma [5] = experiment: Anticoagulation in human plasma, activated partial thromboplastin time (APTT); assay type: biochemical; conditions: concentration required to double the APTT
Protocol: as §5

human thrombin = target: T5, human thrombin (Homo sapiens, UniProt P00734); experiment: Inhibition of amidase activity of thrombin (chromogenic substrate), Kass; assay type: biochemical; conditions: substrate N-benzoyl-Phe-Val-Arg-p-nitroanilide, pH 7.4
T5 construct: purified human thrombin Enzyme Research Laboratories, South Bend, Ind; purchased Enzyme Research Laboratories, South Bend, Ind
Protocol: as §1
The Kass value is the hypothetical equilibrium constant for the reaction between thrombin and the test compound (I). [drawing 53]
as §2

T4 sequence (P00747 581-810 limits assumed): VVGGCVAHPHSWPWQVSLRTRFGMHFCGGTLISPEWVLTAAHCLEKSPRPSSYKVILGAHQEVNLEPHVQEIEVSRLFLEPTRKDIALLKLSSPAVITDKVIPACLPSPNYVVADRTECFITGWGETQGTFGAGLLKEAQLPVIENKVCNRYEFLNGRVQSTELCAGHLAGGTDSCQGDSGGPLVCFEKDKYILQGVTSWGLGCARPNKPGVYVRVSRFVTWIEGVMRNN
T4 sequence (P00747 97-580 partner limits assumed): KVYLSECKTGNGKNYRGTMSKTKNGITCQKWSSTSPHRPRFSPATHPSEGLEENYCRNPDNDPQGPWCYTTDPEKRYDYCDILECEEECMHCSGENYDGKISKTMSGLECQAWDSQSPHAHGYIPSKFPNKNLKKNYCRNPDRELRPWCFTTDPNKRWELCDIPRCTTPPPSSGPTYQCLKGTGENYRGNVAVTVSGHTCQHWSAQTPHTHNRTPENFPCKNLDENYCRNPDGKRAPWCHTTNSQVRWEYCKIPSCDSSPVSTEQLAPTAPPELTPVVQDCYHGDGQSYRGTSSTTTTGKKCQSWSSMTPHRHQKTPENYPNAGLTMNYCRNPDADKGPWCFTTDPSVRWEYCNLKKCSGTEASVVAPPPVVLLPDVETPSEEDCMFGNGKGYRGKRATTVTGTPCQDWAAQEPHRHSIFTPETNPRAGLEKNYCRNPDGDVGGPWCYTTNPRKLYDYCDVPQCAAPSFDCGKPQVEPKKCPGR
T2 sequence (P00750 36-562): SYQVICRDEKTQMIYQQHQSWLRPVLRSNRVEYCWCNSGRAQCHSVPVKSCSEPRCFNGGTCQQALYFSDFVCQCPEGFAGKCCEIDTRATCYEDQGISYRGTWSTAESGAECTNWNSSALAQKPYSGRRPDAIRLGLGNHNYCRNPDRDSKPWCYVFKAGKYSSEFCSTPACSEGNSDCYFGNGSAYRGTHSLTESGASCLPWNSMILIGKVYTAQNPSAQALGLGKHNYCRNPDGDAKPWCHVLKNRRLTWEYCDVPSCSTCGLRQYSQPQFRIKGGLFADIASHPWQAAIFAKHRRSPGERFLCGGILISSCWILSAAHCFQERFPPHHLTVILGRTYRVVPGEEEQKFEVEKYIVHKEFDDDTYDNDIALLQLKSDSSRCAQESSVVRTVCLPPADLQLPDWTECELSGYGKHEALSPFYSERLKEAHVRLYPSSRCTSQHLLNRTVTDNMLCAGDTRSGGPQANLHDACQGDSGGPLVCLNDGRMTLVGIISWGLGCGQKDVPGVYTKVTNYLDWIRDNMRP
T3 sequence (P00742 235-488 limits assumed): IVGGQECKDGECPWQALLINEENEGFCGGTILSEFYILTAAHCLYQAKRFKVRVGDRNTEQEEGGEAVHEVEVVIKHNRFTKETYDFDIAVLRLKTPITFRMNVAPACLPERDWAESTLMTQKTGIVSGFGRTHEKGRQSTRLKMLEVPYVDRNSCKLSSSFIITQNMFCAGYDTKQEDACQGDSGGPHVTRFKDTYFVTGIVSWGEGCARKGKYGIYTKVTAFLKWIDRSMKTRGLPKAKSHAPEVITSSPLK
T3 sequence (P00742 41-179 partner limits assumed): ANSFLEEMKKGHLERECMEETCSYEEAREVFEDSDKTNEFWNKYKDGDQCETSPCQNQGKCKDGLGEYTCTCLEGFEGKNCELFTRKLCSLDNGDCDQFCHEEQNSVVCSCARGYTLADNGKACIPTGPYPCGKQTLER

Enzyme Kass, Trypsin (Bovine trypsin) [L/mol × 10^6] | Enzyme Kass, t-Pa [3] [L/mol × 10^6] | Enzyme Kass, Xa (factor Xa) [L/mol × 10^6] | Enzyme Kass, Plasmin (Human plasmin) [L/mol × 10^6] | Enzyme Kass, Human Thrombin (human thrombin) [L/mol × 10^6] | SMILES | Index of Bioavailability, % Relative Activity [1] [%] | 2 × Clotting time, PT (Human Plasma [2]) | 2 × Clotting time, TT (Human Plasma [4]) [ng/mL] | 2 × Clotting time, APTT (Human Plasma [5])
260 | 0.11 | 24 | 13 | 260 | CCS(=O)(=O)N[C@@H](C(=O)N1CCC[C@H]1C(=O)N[C@H](C=O)CCCNC(=N)N)C1CCCCC1.Cl [Example 22, EtSO2 -D-Chg-Pro-Arg-H.HCl] |  | 1,100 ng/ML | 46 | 330 ng/mL
14 | 0.11 | 0.066 | 0.28 | 3.4 | CC(=O)N[C@H](Cc1ccccc1)C(=O)N1CCC[C@H]1C(=O)N[C@H](C=O)CCCN=C(N)N.Cl [Example 23, Ac-D-Phe-Pro-Arg-H.HCl] |  | 4,100 ng/ML | 140 | 2,700 ng/ML
60 | 0.54 | 0.21 | 2.0 | 25 | CCNC(=O)N[C@H](Cc1ccccc1)C(=O)N1CCC[C@H]1C(=O)N[C@H](C=O)CCCN=C(N)N.Cl [Example 32, EtNHCO-D-Phe-Pro-Arg-H.HCl] |  | 1,700 ng/ML | 63 | 1,100 ng/ML
2.5 | 0.088 | 0.83 | 2.5 | 200 | Cl.NC(N)=NCCCC(C=O)NC(=O)C1CCCN1C(=O)C(CC1CCCCC1)NC(=O)c1ccc2ccccc2n1 [Example 6, N-(quinolinyl-2-carbonyl)-D-Cha-Pro-Arg-H-HCl] |  | 2,700 ng/ML | 97 | 1,400 ng/ML
14 | 0.37 | 0.10 | 0.54 | 29 | Cl.N=C(N)NCCC[C@@H](C=O)NC(=O)[C@@H]1CCCN1C(=O)[C@@H](Cc1ccccc1)NC(=O)Cc1ccccc1 [Example 26, PhCH2 CO-D-Phe-Pro-Arg-H.HCl] |  | 2,000 ng/ML | 64 | 1,100 ng/ML

Further lines, the molecule ahead of its results:

SMILES | Enzyme Kass, Trypsin (Bovine trypsin) [L/mol × 10^6] | Enzyme Kass, t-Pa [3] [L/mol × 10^6] | Enzyme Kass, Xa (factor Xa) [L/mol × 10^6] | Enzyme Kass, Plasmin (Human plasmin) [L/mol × 10^6] | Enzyme Kass, Human Thrombin (human thrombin) [L/mol × 10^6] | Index of Bioavailability, % Relative Activity [1] [%] | 2 × Clotting time, PT (Human Plasma [2]) | 2 × Clotting time, TT (Human Plasma [4]) [ng/mL] | 2 × Clotting time, APTT (Human Plasma [5])
CS(=O)(=O)N[C@H](Cc1ccccc1)C(=O)N1CCC[C@H]1C(=O)N[C@H](C=O)CCCNC(=N)N.Cl [Example 7, MeSO2 -D-Phe-Pro-Arg-H.HCl] | 220 | 13 | 2.4 | 17 | 690 | 27 | 530 ng/mL | 21 | 330 ng/mL
Cl.N=C(N)NCCC[C@@H](C=O)NC(=O)[C@@H]1CCCN1C(=O)[C@@H](Cc1ccccc1)NS(=O)(=O)c1ccc(F)cc1F [Example 14, 2,4-F-PhSO2 -D-Phe-Pro-Arg-H-HCl] | 160 | 2.4 | 11 | 25 | 230 | 6 | 940 ng/mL | 21 | 350 ng/mL
Cl.NC(N)=NCCCC(C=O)NC(=O)C1CCCN1C(=O)C(Cc1ccccc1)NC(=O)c1ccc2ccccc2n1 (centres unmarked) [Example 2] | 22 | 0.32 | 0.16 | 0.55 | 110 | 1 | 1,400 ng/ML | 35 | 1,100 ng/ML
COc1ccc(OC)c(S(=O)(=O)N[C@H](Cc2ccccc2)C(=O)N2CCC[C@H]2C(=O)N[C@H](C=O)CCCNC(=N)N)c1.Cl [Example 15, 2,5-(MeO)2 -PhSO2 -D-Phe-Pro-Arg-H-HCl] | 150 | 1.5 | 8.8 | 9.5 | 200 |  | 2,000 ng/ML | 92 | 550 ng/mL
CCCN(CCC)S(=O)(=O)c1ccc(C(=O)N[C@H](Cc2ccccc2)C(=O)N2CCC[C@H]2C(=O)N[C@H](C=O)CCCNC(=N)N)cc1.Cl [Example 29, 4-(n-Pr2 NSO2)-C6 H4 CO-D-Phe-Pro-Arg-H.HCl] | 15 | 0.62 | 0.32 | 0.86 | 43 |  | 4,800 ng/ML | 150 | 3,500 ng/ML
